Patent US12171787B2, “Methods and compositions for modulating angiogenesis and vasculogenesis” (SanBio, Inc., priority 2012, dated 2024)

How the values were obtained:
aortic rings = assay: Aortic ring assay (vessel outgrowth and branching); format: cell-based, Sprague-Dawley rats; conditions: 50 nM SU5416, rat aortic rings, 10 days
Description: Restoration of vasculature after ischemic injury requires that surviving endothelial cells receive signals that prompt their migration and invasion. Such signals may arise from vascular smooth muscle cells, monocytes, and/or macrophages, among others. To test for secretion of factors involved in vessel sprouting and branching, the aortic ring assay was used. See, for example, Nicosia & Ottinetti (1990) Lab. Invest. 63:115-122 and Nicosia (2009) J. Cell. Mol. Med. 13:4113-4136.
For preparation of aortic rings, adult Sprague-Dawley rats were euthanized prior to dissection. After clamping off its two ends, the aorta was removed and placed in ice-cold α-MEM/pen-strep medium prior to removal of the external adipose layer. Adipose-free aorta was rinsed twice with ice-cold EBM-2/pen-strep medium before being sectioned into rings of 1.0 mm thickness. […]
To assess the angiogenic activity of MSC- and SB623-derived factors, phase contrast photographs were taken on Day 10, and results were quantified by an experimenter blinded to the group, by counting vessel outgrowth and branching. Growth of new vessels was quantitated by measuring the number of vessels growing out from the ring; and vessel branching was quantitated by measuring the number of branchpoints present in vessels growing out from the aortic ring. […]

[1] = test system: human umbilical vein endothelial cells (HUVECs); assay: HUVEC survival: fraction of Bcl-2-expressing cells by flow cytometry; format: cell-based; conditions: 50 nM SU5416 + SB623 cell-conditioned medium, five days, vs SB623 CM alone
Protocol: (§1) Cerebral ischemia can result in loss of nutrient supply to the affected area. To determine if soluble factors from SB623 cells and MSCs have restorative effects on nutrient-deprived endothelial cells, human umbilical vein endothelial cells (HUVECs) were cultured in medium depleted of serum and growth factors for 24 hours, then exposed to conditioned medium (CM) from MSCs or SB623 cells. Control cultures remained in serum- and growth factor-depleted medium without addition of CM. Viability and proliferative capacity of the HUVECs were then assessed.
For these experiments, human umbilical vein endothelial cells were passed twice, then 7.5×10^5 cells were plated in EBM-2/ECGS medium (Endothelial Basal Medium-2/Endothelial Cell Growth Supplements; Lonza, Walkersville, MD) on T-75 flasks coated with 0.1% gelatin and cultured for 24 hours. […] Effects of CM were then assessed by withdrawing 6 ml of medium from each flask, and replacing it with 6 ml fresh OptiMEM (control), 6 ml MSC conditioned medium, or 6 ml SB623 cell conditioned medium (conditioned media prepared as described in Example 1). […]
Bcl-2 is an anti-apoptotic protein originally identified as being overexpressed in certain B-cell lymphomas. Accordingly, the fraction of cells expressing the Bcl-2 protein was measured in serum/growth factor-starved HUVECs as an indicator of their apoptotic potential. […]

[2] = test system: human umbilical vein endothelial cells (HUVECs); assay: HUVEC proliferation: fraction of Ki67-expressing cells by flow cytometry; format: cell-based; conditions: 50 nM SU5416 + SB623 cell conditioned medium, five days
Protocol: Ki67 is a protein present in cells exiting from the GO (quiescent) phase of the cell cycle; therefore Ki67 levels can be used as a measure of cell proliferation. The fraction of cells expressing Ki67 protein was measured in HUVECs that had been starved for serum and growth factors, then cultured with conditioned medium from either MSCs or SB623 cells.
For Ki67 measurement, HUVECs were cultured and exposed to CM as described in Example 2. Cells were fixed in 4% paraformaldehyde and permeabilized with 0.1% Triton-X100 for one hour. Following permeabilization, cells were stained for one hour on ice with fluorescein-conjugated anti-KI67 antibody, then samples were washed, acquired, and analyzed on the FL-1 channel of a BD FACSCalibur. Cells exposed to fluorescein-conjugated IgG were used as a negative control. For these assays, 3 different human donor pairs were tested.
The effect of the VEGF receptor inhibitor on stimulation of HUVEC proliferation by SB623 cell factors was also assessed. Assays for expression of Ki67 were conducted as described in Example 3, except that 50 nM SU5416 was added to cultures 30 minutes before addition of conditioned medium, and cells were cultured for five days, instead of seven, before assay.

[3] = test system: human umbilical vein endothelial cells (HUVECs); assay: HUVEC survival: propidium iodide staining of serum/growth factor-starved HUVECs; format: cell-based; conditions: 50 nM SU5416 + SB623 cell-conditioned medium, five days, vs SB623 CM alone
Protocol: as §1
For these experiments, human umbilical vein endothelial cells were passed twice, then 7.5×10^5 cells were plated in EBM-2/ECGS medium (Endothelial Basal Medium-2/Endothelial Cell Growth Supplements; Lonza, Walkersville, MD) on T-75 flasks coated with 0.1% gelatin and cultured for 24 hours. The HUVEC monolayers were rinsed twice with warm PBS and incubated with 12 ml of fresh EBM-2 medium overnight at 37° C., 5% CO2. Effects of CM were then assessed by withdrawing 6 ml of medium from each flask, and replacing it with 6 ml fresh OptiMEM (control), 6 ml MSC conditioned medium, or 6 ml SB623 cell conditioned medium (conditioned media prepared as described in Example 1). […]
To quantify cell death, cells were stained with propidium iodide (PI), since dead cells are permeable to PI. […]

HUVECs = assay: HUVEC tube formation assay; format: cell-based, human
Description: A HUVEC tube formation assay was used to test the ability of MSCs and SB623 cells to elaborate factors that stimulate vessel formation. See, for example, E J Smith & C A Staton, “Tubule formation assays,” in Angiogenesis Assays—A Critical Appraisal of Current Techniques, (Staton, Lewis & Bicknell, eds.). John Wiley & Sons, Ltd., West Sussex, UK, pp. 65-87, 2006; and Goodwin (2007) Microvasc. Res. 74:172-183.
HUVECs were passed five times in EBM-2/ECGS medium, then transferred to alpha-MEM/0.5% FBS/2 mM glutamine/pen-strep, at a density of 1×10^5 cells/ml. After 24 hours, HUVECs were harvested using 0.25% trypsin-EDTA, rinsed, and resuspended in α-MEM/2 mM glutamine/pen-strep at a density of 1×10^5 cells/ml. A mixture of 75 ul of HUVECs plus 75 ul of either MSC- or SB623-conditioned medium (Example 1), or 75 ul OptiMEM medium as a negative control, was added to each well of a 96-well plate that had been pre-treated by adding 50 ul of Reduced Growth Factor (RGF)-basement gel (Invitrogen, Carslsbad, CA) per well and incubating the plates at 37° C. for 45 minutes. For this assay, MSCs were obtained from 3 different human donors, and a portion of the MSCs from each donor were converted to SB623 cells.
After 16 hours, the cultures were examined by phase contrast microscopy and photographed. The number of complete tubes (formed by contiguous cells) was quantified by an experimenter blinded to the group. […] Thus, MSCs and SB623 cells secrete factors that promote vasculogenesis.
HUVEC tube formation assays with conditioned medium from MSCs and SB623 cells were conducted as described in Example 4, in the presence and absence of the VEGF2 receptor inhibitor SU5416.
Quantitation of tube formation was conducted, as described in Example 4, for HUVECs exposed to SB623 cell conditioned medium in the presence and absence of SU5416, at 16 and 40 hours after plating.

In the case of Cc1cc(C)c(/C=C2\C(=O)Nc3ccccc32)[nH]1 [SU5416], the “vessel outgrowth and branching in SB623 cell-conditioned medium plus inhibitor” value (aortic rings) is reported as “reduced”, the “Bcl-2 expression by HUVECs in SB623 conditioned medium plus inhibitor” value [1] is reported as “fewer cells express” and the “effect on enhancement of HUVEC proliferation (Ki67) by SB623 conditioned medium” value [2] is reported as “partially reversed”. For the same compound, the “propidium iodide uptake by HUVECs in SB623 conditioned medium plus inhibitor” value [3] was “more cells take up PI”, the “effect on positive effect of SB623 CM on tube formation (quantitation)” value (HUVECs; 50 nM SU5416, 16 and 40 hours after plating) was “completely reversed” and the “effect on stimulation of tube formation by VEGF, MSC-CM and SB623-CM” value (HUVECs; 50 nM SU5416, 16 hours) was “reduces the stimulation of tube formation”.

In the case of VEGF, the “tube formation by HUVECs (positive control)” value (HUVECs; 10 ng/ml VEGF, 16 hours) is reported as “promote tube formation”.
